Laboratory results as given in patent US11964996B2, “2-alkynylmannose derivative and application thereof” (priority 2020, dated 2024).

Molecular target: T1, FimH proteins (Escherichia coli, UniProt Q1R2J4)
T1 construct: endogenous in cells; host or cells: UPEC strain UTI89 (whole bacteria)
Experiment: hemagglutination inhibition (HAI) assay: UPEC UTI89 with guinea pig red blood cells
Format: cell-based, uropathogenic Escherichia coli (UPEC) UTI89
Details: read-out: HAI EC90 (minimum concentration for inhibiting hemagglutination)
Description: In the present example, the mannose derivatives A1 to A107 that were prepared in Examples 1 to 12 were analyzed in hemagglutination inhibition (HAI) assays to determine inhibitory effects of the compounds on the function/activity of FimH proteins.
1. Preparation of a guinea pig red blood cell solution: an adult guinea pig was anesthetized with ethyl ether, blood was sampled from the heart, placed in an EDTA blood collection tube, and centrifuged at 2,000 rpm for 5 min, serum was removed, the sample was transferred in a centrifuge tube (15 mL), sterilized PBS was added, the sample was centrifuged at 1,500 rpm for 10 min, a supernatant was removed, the sample was transferred in a centrifuge tube (50 mL), PBS was added, the sample was centrifuged at 1,500 rpm for 10 min and repeatedly washed twice, and red blood cells were slightly aspirated into a new centrifuge tube (50 mL) to obtain a 5% guinea pig red blood cell solution.
2. Preparation of a bacteria solution: a UPEC cell line UTI89 was inoculated on a medium plate and cultured in an incubator at 37° C. overnight. Single colonies were picked and inoculated in an LB medium in a sterilized conical flask, and cultured at 37° C. and 170 r/min overnight. When an OD value at 540 nm was about 0.8 on a microplate reader, the bacterial concentration was about 10^8-10^9 cfu/mL, the bacteria solution was centrifuged at 2,000 rpm for 10 min, a supernatant was removed, and 1 mL of bacteria solution was prepared into 0.1 mL of PBS bacteria solution. […] The bacteria and the medium were uniformly mixed by shaking, and reacted in an incubator at 25° C. for about 20-40 min. When the plate was read, the wells in which complete agglutination occurred were used as 4HAU for the hemagglutination titer of the bacteria. For example, if the endpoint titer of hemagglutination is 1:256, the dilution multiple of the 4HAU antigen is 1:64 (256 divided by 4). Bacteria solutions at corresponding concentrations were prepared according to the experimental results.
3. Activity assay: a compound to be tested or a standard product was placed in a 96-well microtest plate, 50 μL of drug at an initial concentration of 200 μM was placed in the first well, and from the second well, 25 μL of PBS was added to each well to dilute the drug in proportion. The drug and the medium in the first well were mixed, 25 μL of mixed drug solution was placed in the second well, the drug solution was diluted in sequence to the last well, and 25 μL of drug solution was removed. 25 μL of bacteria solution was placed in each well of the culture plate containing the diluted drug, and cultured at 37° C. for 40 min. 25 μL of 5% guinea pig red blood cell suspension was placed in each well, and slightly uniformly mixed with the drug, and the plate was placed at 4° C. for about 1 h. When results were determined, the plate was tilted 60°, and whether the red blood cells flowed like teardrops was observed.
Mannosyl proteins are expressed on the surface of red blood cells in a guinea pig, which can bind to FimH proteins of UTI89 to cause hemagglutination. It can be observed with the naked eyes that the red blood cells form film-like agglutination at the bottom of the well, and loose red dots can be seen in the center. The FimH protein inhibitor competitively binds to FimH proteins to inhibit hemagglutination. It can be observed with the naked eyes that all the red blood cells sink and concentrate at the bottom of the well to form dense dots. The minimum concentration for inhibiting hemagglutination is expressed as an EC90 value of a compound. The final concentration of the compound in the first well is 66700 nM, the concentration in the second well is half that in the first well, the concentration in the third well is half that in the second well, and so on. […] A low EC90 value indicates high activity of a compound.

| Structure (SMILES) | EC90 [nM] |
| --- | --- |
| OC[C@H]1O[C@H](C#Cc2cnn(-c3ccc(O[C@@H]4CCOC4)cc3)c2)[C@](O)(C#Cc2ccccc2)[C@@H](O)[C@@H]1O [Compound A103] | < 0.1 |
| OC[C@@H](O)COc1ccc(-n2cc(C#C[C@H]3O[C@H](CO)[C@@H](O)[C@H](O)[C@@]3(O)C#Cc3cnn(C[C@H](O)CO)c3)cn2)cc1 [Compound A91] | 8 |
| OC[C@H]1O[C@H](C#Cc2cnn(-c3ccc(OCC4CC4)cc3)c2)[C@](O)(C#CC2CC2)[C@@H](O)[C@@H]1O [Compound A31] | < 0.1 |
| OC[C@H]1O[C@H](C#Cc2cnn(-c3ccc(O[C@H]4CCOC4)cc3)c2)[C@](O)(C#CC2CC2)[C@@H](O)[C@@H]1O [Compound A100] | < 0.1 |
| OC[C@H]1O[C@H](C#Cc2cnn(-c3ccc(OC(F)(F)F)cc3)c2)[C@](O)(C#CC2CC2)[C@@H](O)[C@@H]1O [Compound A10] | 0.13 |
| CC(C)O[C@H]1O[C@H](CO)[C@@H](O)[C@H](O)[C@@]1(O)C#Cc1ccccc1 [Compound A6] | 1040 |
| OC[C@H]1O[C@H](C#Cc2cnn(C3CCCCC3O)c2)[C@](O)(C#Cc2ccccc2)[C@@H](O)[C@@H]1O (stereo partly drawn) [Compound A69] | 16 |
| CCOc1ccc(-n2cc(C#C[C@H]3O[C@H](CO)[C@@H](O)[C@H](O)[C@@]3(O)C#CC3CC3)cn2)cc1 [Compound A106] | < 0.1 |
| CC(C)c1cccc(C#C[C@H]2O[C@H](CO)[C@@H](O)[C@H](O)[C@@]2(O)C#Cc2ccccc2)c1 [Compound A26] | 130 |
| C#C[C@H]1O[C@H](CO)[C@@H](O)[C@H](O)[C@@]1(O)C#Cc1ccccc1 [Compound A14] | 4160 |
| OC[C@H]1O[C@H](C#Cc2cnn(C3CCCC3)c2)[C@](O)(C#Cc2ccccc2)[C@@H](O)[C@@H]1O [Compound A45] | 1 |
| OC[C@H]1O[C@H](OC2CCCCC2)[C@](O)(C#Cc2ccccc2)[C@@H](O)[C@@H]1O [Compound A12] | 260 |
| OC[C@H]1O[C@H](C#Cc2cnn(-c3cccc(Cl)c3)c2)[C@](O)(C#CC2CC2)[C@@H](O)[C@@H]1O [Compound A92] | 2 |
| Cn1ncc(C#C[C@H]2O[C@H](CO)[C@@H](O)[C@H](O)[C@@]2(O)C#Cc2ccccc2)c1Cl [Compound A35] | 520 |
| OC[C@H]1O[C@H](C#Cc2cnn([C@H]3CCOC3)c2)[C@](O)(C#Cc2ccccc2)[C@@H](O)[C@@H]1O [Compound A49] | 16 |
| Cc1cc(Br)ccc1O[C@H]1O[C@H](CO)[C@@H](O)[C@H](O)[C@@]1(O)C#Cc1ccccc1 [Compound A4] | 1040 |
| CCC#C[C@@]1(O)[C@@H](C#Cc2cnn(-c3ccc(Cl)cc3)c2)O[C@H](CO)[C@@H](O)[C@@H]1O [Compound A80] | 2 |
| OC[C@H]1O[C@H](C#Cc2cnn([C@H]3C[C@H]4C[C@H]4C3)c2)[C@](O)(C#Cc2ccccc2)[C@@H](O)[C@@H]1O [Compound A62] | 0.5 |
| OC[C@H]1O[C@H](C#Cc2cnn(C3CCOCC3)c2)[C@](O)(C#Cc2ccccc2)[C@@H](O)[C@@H]1O [Compound A52] | 4 |
| Cc1c(C#C[C@H]2O[C@H](CO)[C@@H](O)[C@H](O)[C@@]2(O)C#Cc2ccccc2)cnn1C [Compound A36] | 260 |
| OC[C@H]1O[C@H](C#Cc2cnn(-c3ccccc3)c2)[C@](O)(C#CC2CC2)[C@@H](O)[C@@H]1O [Compound A88] | 4 |
| O=S(=O)(O)c1cccc(C#C[C@@]2(O)[C@@H](C#Cc3cnn(-c4ccc(OC[C@H](O)CO)cc4)c3)O[C@H](CO)[C@@H](O)[C@@H]2O)c1 [Compound A89] | 16 |
| Cc1cccc(C#C[C@@]2(O)[C@@H](C#Cc3ccccc3)O[C@H](CO)[C@@H](O)[C@@H]2O)c1 [Compound A18] | 260 |
| OC[C@H]1O[C@H](OC2CCC(F)(F)CC2)[C@](O)(C#Cc2ccccc2)[C@@H](O)[C@@H]1O [Compound A13] | 1040 |

| Structure (SMILES) | EC90 [nM] |
| --- | --- |
| N#Cc1ccc(-n2cc(C#C[C@H]3O[C@H](CO)[C@@H](O)[C@H](O)[C@@]3(O)C#CC3CC3)cn2)cc1 [Compound A96] | 4 |
| OC[C@H]1O[C@H](C#Cc2cnn(-c3ccc(O[C@H]4CCOC4)cc3)c2)[C@](O)(C#Cc2ccccc2)[C@@H](O)[C@@H]1O [Compound A104] | < 0.1 |
| O=c1ccc(C#C[C@H]2O[C@H](CO)[C@@H](O)[C@H](O)[C@@]2(O)C#Cc2ccccc2)cn1-c1ccccc1 [Compound A55] | 64 |
| CCC(C)n1cc(C#C[C@H]2O[C@H](CO)[C@@H](O)[C@H](O)[C@@]2(O)C#Cc2ccccc2)cn1 (stereo partly drawn) [Compound A41] | 8 |
| OC[C@H]1O[C@H](C#Cc2cnn([C@@H]3C[C@H]4C[C@H]4C3)c2)[C@](O)(C#Cc2ccccc2)[C@@H](O)[C@@H]1O [Compound A61] | 8 |
| CC(C)c1cccc(C#C[C@@]2(O)[C@@H](C#Cc3ccccc3)O[C@H](CO)[C@@H](O)[C@@H]2O)c1 [Compound A19] | 520 |
| CCC(CC)O[C@H]1O[C@H](CO)[C@@H](O)[C@H](O)[C@@]1(O)C#Cc1ccccc1 [Compound A9] | 130 |
| CNC(=O)c1cccc(-c2ccc(O[C@H]3O[C@H](CO)[C@@H](O)[C@H](O)[C@@]3(O)C#Cc3cnn(C)c3)c(C)c2)c1 [Compound A3] | 16 |
| OC[C@H]1O[C@H](C#Cc2cnn(-c3ccc(C(F)(F)F)cc3)c2)[C@](O)(C#CC2CC2)[C@@H](O)[C@@H]1O [Compound A95] | 4 |
| CCC(C)O[C@H]1O[C@H](CO)[C@@H](O)[C@H](O)[C@@]1(O)C#Cc1ccccc1 (stereo partly drawn) [Compound A7] | 260 |
| CO[C@H]1CC[C@H](n2cc(C#C[C@H]3O[C@H](CO)[C@@H](O)[C@H](O)[C@@]3(O)C#Cc3cc(F)cc(F)c3)cn2)CC1 [Compound A75] | 8 |
| OC[C@H]1O[C@H](C#Cc2cnn([C@@H]3CCOC3)c2)[C@](O)(C#Cc2ccccc2)[C@@H](O)[C@@H]1O [Compound A50] | 130 |
| Cn1cc(C#C[C@@]2(O)[C@@H](C#Cc3cnn(-c4cnn(C)c4)c3)O[C@H](CO)[C@@H](O)[C@@H]2O)cn1 [Compound A79] | 16 |
| CCn1cc(C#C[C@H]2O[C@H](CO)[C@@H](O)[C@H](O)[C@@]2(O)C#Cc2ccccc2)cn1 [Compound A40] | 32 |
| OC[C@H]1O[C@H](C#Cc2cccc(-c3ccccc3)c2)[C@](O)(C#Cc2ccccc2)[C@@H](O)[C@@H]1O [Compound A32] | 130 |
| Cc1ccc(-n2cc(C#C[C@H]3O[C@H](CO)[C@@H](O)[C@H](O)[C@@]3(O)C#CC3CC3)cn2)cc1 [Compound A94] | < 0.1 |
| CC(C)Oc1ccc(-n2cc(C#C[C@H]3O[C@H](CO)[C@@H](O)[C@H](O)[C@@]3(O)C#CC3CC3)cn2)cc1 [Compound A107] | < 0.1 |
| OC[C@H]1O[C@H](C#Cc2cnn(-c3ccccc3)c2)[C@](O)(C#Cc2ccccc2)[C@@H](O)[C@@H]1O [Compound A47] | 0.25 |
| COCCOc1ccc(-n2cc(C#C[C@H]3O[C@H](CO)[C@@H](O)[C@H](O)[C@@]3(O)C#CC3CC3)cn2)cc1 [Compound A98] | < 0.1 |
| COc1cnc(-n2cc(C#C[C@H]3O[C@H](CO)[C@@H](O)[C@H](O)[C@@]3(O)C#Cc3cnn(C)c3)cn2)nc1 [Compound A71] | 8 |
| OC[C@H]1O[C@H](C#Cc2cnn(C3CCC3)c2)[C@](O)(C#Cc2ccccc2)[C@@H](O)[C@@H]1O [Compound A44] | 8 |
| OC[C@H]1O[C@H](C#Cc2cnn(-c3cccc(F)c3)c2)[C@](O)(C#Cc2ccccc2)[C@@H](O)[C@@H]1O [Compound A101] | 0.25 |
| OC[C@H]1O[C@H](C#Cc2ccccc2)[C@](O)(C#Cc2ccccc2)[C@@H](O)[C@@H]1O [Compound A17] | 130 |
| Cc1ccccc1O[C@H]1O[C@H](CO)[C@@H](O)[C@H](O)[C@@]1(O)C#Cc1ccccc1 [Compound A5] | 520 |
